Measurements as given in publication PMC7215373, “Design, Synthesis, and Anticancer Evaluation of Novel Indole Derivatives of Ursolic Acid as Potential Topoisomerase II Inhibitors” (International Journal of Molecular Sciences, 2020).

How the values were obtained:
SMMC-7721 cells = assay: MTT cytotoxicity assay, SMMC-7721; format: cell-based, human; conditions: 48 h exposure
Procedure: (§1) The in vitro cytotoxic activities of synthesized compounds were evaluated against two human hepatocarcinoma cell lines (SMMC-7721 and HepG2) and the human normal hepatocyte cell line (LO2) via MTT assay. All tested compounds were dissolved in DMSO and the stock solutions were diluted by DMEM medium before treatment of the cultured cells. […] Cell lines were obtained from American Tissue Culture Collection (ATCC). Briefly, different tumor cells were grown in DMEM medium supplemented with 10% fetal bovine serum, penicillin (100 U/mL), and streptomycin (50 μg/mL). Cells were harvested at log phase of growth and seeded in 96-well plates (100 μL/well at a density of 2 × 10^5 cells/mL). After 24 h incubation at 37 °C and 5% CO2 to allow cell attachment, cultures were exposed to various concentrations of the isolated compounds for 48 h. Finally, MTT solution (2.5 mg/mL in PBS) was added (40 μL/well). Plates were further incubated for 4 h at 37 °C, and the formazan crystals formed were dissolved by adding 150 μL/well of DMSO. Absorption at 570 nm was measured with an ELISA plate reader. […] Doxorubicin, camptothecin, and etoposide (VP-16) were co-assayed as positive controls.

HepG2 cells = assay: MTT cytotoxicity assay, HepG2; format: cell-based, human; conditions: 48 h exposure
Procedure: as §1

LO2 cells = assay: MTT cytotoxicity assay, normal hepatocyte LO2; format: cell-based; conditions: Homo sapiens, L02, 48 h exposure, normal hepatocyte cell line
Procedure: as §1

Human Topoisomerase IIα = target: T1, Human Topoisomerase IIα (Homo sapiens, UniProt P11388); assay: Topoisomerase II relaxation assay (supercoiled pBR322); format: biochemical; conditions: for inhibition at 20 µM: 20 μM compound, read-out: Topo II Inhibition (%) 20 μM; for inhibition at 100 µM: 100 μM compound, read-out: Topo II Inhibition (%) 100 μM
T1 construct: purchased USB, Affymetrix, Waltham, MA, USA
T1 sequence (P11388 whole entry): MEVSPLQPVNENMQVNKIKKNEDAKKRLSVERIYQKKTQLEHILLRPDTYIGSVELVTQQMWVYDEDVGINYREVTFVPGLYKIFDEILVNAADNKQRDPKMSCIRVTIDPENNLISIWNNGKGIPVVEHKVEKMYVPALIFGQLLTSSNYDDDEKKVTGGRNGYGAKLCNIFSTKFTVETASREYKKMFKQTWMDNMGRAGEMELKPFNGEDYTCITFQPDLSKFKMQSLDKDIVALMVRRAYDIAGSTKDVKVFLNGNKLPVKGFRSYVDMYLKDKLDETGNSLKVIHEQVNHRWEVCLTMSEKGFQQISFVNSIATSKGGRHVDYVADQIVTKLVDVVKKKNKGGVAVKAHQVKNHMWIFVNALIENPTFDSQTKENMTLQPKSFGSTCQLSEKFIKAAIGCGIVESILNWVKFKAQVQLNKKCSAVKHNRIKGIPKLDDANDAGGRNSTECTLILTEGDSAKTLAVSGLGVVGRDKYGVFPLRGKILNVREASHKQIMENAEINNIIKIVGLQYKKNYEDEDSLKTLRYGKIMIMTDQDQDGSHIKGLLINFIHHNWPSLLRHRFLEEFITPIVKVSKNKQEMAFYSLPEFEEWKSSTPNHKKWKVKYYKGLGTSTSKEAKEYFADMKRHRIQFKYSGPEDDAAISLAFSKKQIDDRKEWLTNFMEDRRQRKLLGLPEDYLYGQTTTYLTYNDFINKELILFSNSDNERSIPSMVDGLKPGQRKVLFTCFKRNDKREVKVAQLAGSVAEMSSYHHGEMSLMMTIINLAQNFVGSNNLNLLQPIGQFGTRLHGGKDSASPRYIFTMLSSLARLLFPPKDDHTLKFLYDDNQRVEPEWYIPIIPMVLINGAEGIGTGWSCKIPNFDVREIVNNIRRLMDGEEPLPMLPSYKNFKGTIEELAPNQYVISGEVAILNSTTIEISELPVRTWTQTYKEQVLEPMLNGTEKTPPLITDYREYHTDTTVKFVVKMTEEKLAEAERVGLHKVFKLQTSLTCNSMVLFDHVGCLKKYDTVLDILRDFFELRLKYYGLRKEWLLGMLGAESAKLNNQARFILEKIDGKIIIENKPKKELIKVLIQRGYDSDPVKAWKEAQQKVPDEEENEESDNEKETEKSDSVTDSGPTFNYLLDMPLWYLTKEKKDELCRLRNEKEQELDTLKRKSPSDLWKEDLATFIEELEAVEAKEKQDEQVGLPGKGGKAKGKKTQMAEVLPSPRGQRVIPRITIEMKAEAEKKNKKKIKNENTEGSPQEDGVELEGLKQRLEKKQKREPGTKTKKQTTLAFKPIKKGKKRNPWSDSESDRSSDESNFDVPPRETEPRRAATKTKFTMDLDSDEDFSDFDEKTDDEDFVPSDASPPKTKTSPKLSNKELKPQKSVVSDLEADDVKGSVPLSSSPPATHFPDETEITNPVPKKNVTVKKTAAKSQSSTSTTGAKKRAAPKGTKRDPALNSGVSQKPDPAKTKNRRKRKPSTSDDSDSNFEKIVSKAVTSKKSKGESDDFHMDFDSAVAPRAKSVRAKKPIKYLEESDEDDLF
Procedure: The effect of the tested compounds on Topo I and II activities were evaluated by Topo I/II relaxation assays. The reaction products, relaxed DNA could be distinguished from supercoiled DNA by gel electrophoresis and visualized using gel imaging system. Human Topoisomerase IIα activity was detected by measuring the relaxation of supercoiled pBR322 plasmid DNA [22]. […] For inhibition studies, the compounds were pre-incubated with human Topo IIα and DNA for 15 min. Compounds were used at the appropriate concentrations by dissolving in 2% (v/v) DMSO. DMSO didn't show detrimental effect on the enzyme activity at concentration up to 2% (v/v). Reaction mixture was incubated at 37 °C for 30 min and stopped by the addition of 7 mM EDTA. Reaction product was mixed with DNA loading dye and electrophoresed on 1% TAE-Agarose. The gel was stained with ethidium bromide (0.5 μg/mL) for 30 min, destained twice in 1× TAE buffer, and then visualized using a BIO-RAD Gel Doc XR+ System. Etoposide (VP-16) was co-assayed as a positive control.

DNA topoisomerase I = target: T2, DNA topoisomerase I (Bos taurus, UniProt F1MN93); assay: Topoisomerase I relaxation assay (supercoiled pBR322); format: biochemical; conditions: for inhibition at 100 µM: 100 μM compound, read-out: Topo I Inhibition (%) 100 μM; for inhibition at 20 µM: 20 μM compound, read-out: Topo I Inhibition (%) 20 μM
T2 construct: purchased TaKaRa, Kyoto, Japan
T2 sequence (F1MN93 1-767): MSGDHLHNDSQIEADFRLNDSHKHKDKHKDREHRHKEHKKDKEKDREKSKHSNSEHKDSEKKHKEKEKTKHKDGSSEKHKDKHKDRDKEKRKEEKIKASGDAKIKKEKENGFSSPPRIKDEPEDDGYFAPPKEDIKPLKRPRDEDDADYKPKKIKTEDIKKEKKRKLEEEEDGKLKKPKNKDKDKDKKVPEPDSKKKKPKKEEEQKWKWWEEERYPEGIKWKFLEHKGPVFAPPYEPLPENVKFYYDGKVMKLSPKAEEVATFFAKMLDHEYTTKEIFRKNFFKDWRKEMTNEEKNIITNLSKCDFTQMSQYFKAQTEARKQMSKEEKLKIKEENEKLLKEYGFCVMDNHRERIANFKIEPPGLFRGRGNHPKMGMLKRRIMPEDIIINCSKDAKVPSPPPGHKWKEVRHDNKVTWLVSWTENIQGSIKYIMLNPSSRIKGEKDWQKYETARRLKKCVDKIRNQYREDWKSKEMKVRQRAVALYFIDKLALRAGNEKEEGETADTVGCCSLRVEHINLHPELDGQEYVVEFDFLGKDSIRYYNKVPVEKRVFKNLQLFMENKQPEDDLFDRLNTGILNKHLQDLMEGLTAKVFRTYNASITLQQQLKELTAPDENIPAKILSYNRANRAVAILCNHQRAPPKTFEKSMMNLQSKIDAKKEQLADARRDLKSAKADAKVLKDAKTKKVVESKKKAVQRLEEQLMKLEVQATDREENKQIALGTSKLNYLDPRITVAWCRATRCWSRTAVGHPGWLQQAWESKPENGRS
Procedure: The effect of the tested compounds on Topo I and II activities were evaluated by Topo I/II relaxation assays. The reaction products, relaxed DNA could be distinguished from supercoiled DNA by gel electrophoresis and visualized using gel imaging system. The activity of DNA topoisomerase I (TaKaRa, Kyoto, Japan) was determined by measuring the relaxation of supercoiled DNA pBR322 [32]. Camptothecin was used as a positive control. The reaction mixture was prepared according to the manufacture's protocol, and incubated at 37 °C for 30 min. The reactions were terminated by adding dye solution containing 1% SDS, 0.02% bromophenol blue and 50% glycerol. The mixtures were applied to 1% agarose gel and subjected to electrophoresis for 1 h, in 1× TAE buffer (40 mM Tris-acetate, 1 mM EDTA). Gels were stained for 30 min in 60 mL 1× TAE buffer with ethidium bromide (0.5 μg/mL). DNA bands were visualized by transillumination with UV light and then photographed by a Gel Doc XR+ System (BIO-RAD, Hercules, CA, USA).

| SMILES | IC50 (SMMC-7721 cells; Homo sapiens, SMMC-7721, 48 h) [µM] | IC50 (HepG2 cells; Homo sapiens, HepG2, 48 h) [µM] | IC50 (LO2 cells) [µM] | inhibition at 20 µM (Human Topoisomerase IIα) [%] | inhibition at 100 µM (Human Topoisomerase IIα) [%] | inhibition at 100 µM (DNA topoisomerase I) [%] | melting point [°C] | IC50 (SMMC-7721 cells) [µM] | IC50 (HepG2 cells) [µM] | inhibition at 20 µM (DNA topoisomerase I) [%] |
| --- | --- | --- | --- | --- | --- | --- | --- | --- | --- | --- |
| COc1cc([C@@H]2c3cc4c(cc3[C@@H](O[C@@H]3O[C@@H]5CO[C@@H](C)O[C@H]5[C@H](O)[C@H]3O)[C@H]3COC(=O)[C@H]23)OCO4)cc(OC)c1O [VP-16, etoposide, reference compound] | 0.36 ± 0.1 | 0.57 ± 0.16 | 5.92 ± 0.29 | 47.8 | 88.5 |  |  |  |  |  |
| CCN(CC)CCCNC(=O)[C@]12CC[C@@H](C)[C@H](C)C1C1=CCC3[C@@]4(C)Cc5c([nH]c6ccc(C)cc56)C(C)(C)C4CC[C@@]3(C)[C@]1(C)CC2 (some centres unmarked) [5c, N-(3-(Diethylamino)propyl)-5′-methyl-1′H-ursa-2,12-dieno[3,2-b]indol-28-carboxamide] | 1.15 ± 0.14 | 1.2 ± 0.24 | 15.8 ± 1.06 | 38.9 | 75.8 | 0 | 147 to 149 |  |  |  |
| Cc1ccc2[nH]c3c(c2c1)C[C@@]1(C)C(CC[C@]2(C)C1CC=C1C4[C@@H](C)[C@H](C)CC[C@]4(C(=O)NCCN(C)C)CC[C@]12C)C3(C)C (some centres unmarked) [4b, N-(2-(Dimethylamino)ethyl)-5′-methyl-1′H-ursa-2,12-dieno[3,2-b]indol-28-carboxamide] | 4.42 ± 0.71 | 4.11 ± 0.55 | 31.1 ± 2.63 | 36.9 | 68 | 3.7 | 166 to 168 |  |  |  |
| Cc1ccc2[nH]c3c(c2c1)C[C@@]1(C)C(CC[C@]2(C)C1CC=C1C4[C@@H](C)[C@H](C)CC[C@]4(C(=O)NCCCCN)CC[C@]12C)C3(C)C (some centres unmarked) [6a, N-(4-Aminobutyl)-5′-methyl-1′H-ursa-2,12-dieno[3,2-b]indol-28-carboxamide] | ~1 | ~1 | 15.2 ± 1.15 | 27 | 71.1 | 28.8 | 256 to 258 | 1.21 ± 0.19 | 1.32 ± 0.21 | 13.7 |
| Cc1ccc2[nH]c3c(c2c1)C[C@@]1(C)C(CC[C@]2(C)C1CC=C1C4[C@@H](C)[C@H](C)CC[C@]4(C(=O)NCCN4CCOCC4)CC[C@]12C)C3(C)C (some centres unmarked) [4e, N-(2-Morpholinoethyl)-5′-methyl-1′H-ursa-2,12-dieno[3,2-b]indol-28-carboxamide] | 7.82 ± 0.78 | 10.7 ± 2.09 | > 50 | 26.8 | 63.3 | 0 | 104 to 105 |  |  |  |
| Cc1ccc2[nH]c3c(c2c1)C[C@@]1(C)C(CC[C@]2(C)C1CC=C1C4[C@@H](C)[C@H](C)CC[C@]4(C(=O)NCCCCN4CCN(C)CC4)CC[C@]12C)C3(C)C (some centres unmarked) [6f, N-(4-(4-Methylpiperazin-1-yl)butyl)-5′-methyl-1′H-ursa-2,12-dieno[3,2-b]indol-28-carboxamide] | ~1 | ~1 | 13.7 ± 1.28 | 39.8 | 81.8 | 0 |  | 0.65 ± 0.07 | 1.01 ± 0.12 |  |
| Cc1ccc2[nH]c3c(c2c1)C[C@@]1(C)C(CC[C@]2(C)C1CC=C1C4[C@@H](C)[C@H](C)CC[C@]4(C(=O)NCCCN4CCOCC4)CC[C@]12C)C3(C)C (some centres unmarked) [5e, N-(3-Morpholinopropyl)-5′-methyl-1′H-ursa-2,12-dieno[3,2-b]indol-28-carboxamide] | 3.75 ± 0.37 | 5.27 ± 0.67 | 28.6 ± 0.76 | 31.5 | 70.8 | 0 | 108 to 110 |  |  |  |
| Cc1ccc2[nH]c3c(c2c1)C[C@@]1(C)C(CC[C@]2(C)C1CC=C1C4[C@@H](C)[C@H](C)CC[C@]4(C(=O)NCCCN)CC[C@]12C)C3(C)C (some centres unmarked) [5a, N-(3-Aminopropyl)-5′-methyl-1′H-ursa-2,12-dieno[3,2-b]indol-28-carboxamide] | 2.02 ± 0.21 | 2.45 ± 0.38 | 21.3 ± 1.59 | 31.2 | 72.3 | 24.5 | 205 to 207 |  |  | 12.4 |
| CCN(CC)CCNC(=O)[C@]12CC[C@@H](C)[C@H](C)C1C1=CCC3[C@@]4(C)Cc5c([nH]c6ccc(C)cc56)C(C)(C)C4CC[C@@]3(C)[C@]1(C)CC2 (some centres unmarked) [4c, N-(2-(Diethylamino)ethyl)-5′-methyl-1′H-ursa-2,12-dieno[3,2-b]indol-28-carboxamide] | 2.1 ± 0.21 | 2.24 ± 0.32 | 26.4 ± 1.32 | 38.3 | 68.7 | 0 |  |  |  |  |
| CC[C@@]1(O)C(=O)OCc2c1cc1n(c2=O)Cc2cc3ccccc3nc2-1 [CPT, camptothecin, reference compound] | 0.56 ± 0.18 | 1.12 ± 0.26 | 8.93 ± 0.52 |  |  | 75.1 |  |  |  | 38.2 |
| COc1cccc2c1C(=O)c1c(O)c3c(c(O)c1C2=O)C[C@@](O)(C(=O)CO)C[C@@H]3O[C@H]1C[C@H](N)[C@H](O)[C@H](C)O1 [DOX, doxorubicin, reference compound] | 0.68 ± 0.11 | 0.81 ± 0.19 | 5.32 ± 0.67 |  |  |  |  |  |  |  |
| Cc1ccc2[nH]c3c(c2c1)C[C@@]1(C)C(CC[C@]2(C)C1CC=C1C4[C@@H](C)[C@H](C)CC[C@]4(C(=O)NCCCNC(=O)[C@]45CC[C@@H](C)[C@H](C)C4C4=CCC6[C@@]7(C)Cc8c([nH]c9ccc(C)cc89)C(C)(C)C7CC[C@@]6(C)[C@]4(C)CC5)CC[C@]12C)C3(C)C (some centres unmarked) [7b, N,N′-(propane-1,3-diyl)-bis(5′-methyl-1′H-ursa-2,12-dieno[3,2-b]indol-28-carboxamide)] | > 50 | > 50 | > 50 | 9.8 | 17.8 | 2 | 276 to 278 |  |  |  |
| Cc1ccc2[nH]c3c(c2c1)C[C@@]1(C)C(CC[C@]2(C)C1CC=C1C4[C@@H](C)[C@H](C)CC[C@]4(C(=O)NCCCCN4CCOCC4)CC[C@]12C)C3(C)C (some centres unmarked) [6e, N-(4-Morpholinobutyl)-5′-methyl-1′H-ursa-2,12-dieno[3,2-b]indol-28-carboxamide] | 4.55 ± 1.56 | 7.84 ± 2.31 | 35.4 ± 3.13 | 28.2 | 65.6 | 0 |  |  |  |  |
